These results are taken from patent publication US20260272952A1, “CANNABINOIDS FOR TREATING NEUROINFLAMMATION” (Lundquist Institute for Biomedical Innovation at …, priority 2022, published 2026).

The test system of the assay is MPS IIIA neurons. Description: GABARAPL2 western blot in iPSC-derived cortical neurons treated with CBD. It is filed as cell-based, human. The conditions noted are these: CBD 1 μM and 5 μM, cortical neurons from MPS IIIA patients' iPSCs, with or without Bafilomycin A1 200 nM. On the procedure:
HCNT: human health controls; MPS IIIA: MPS IIIA forebrain neurons.
Cortical neurons differentiated from healthy control and MPS IIIA patients' iPSCs. […] GABARAPL2, a protein which involves in autophagy, was measured in a western blot assay (see FIG. 3).
A general note: In western blotting, separated proteins are transferred to a membrane and probed.

For the substance Cannabidiol [CBD], the GABARAPL2 accumulation entry is recorded as “decreases”.
